This assay addresses human PDE10A2 (Homo sapiens (Human), UniProt Q9Y233). Nature of the assay: PDE10 fluorescence polarization (IMAP FP) inhibition assay. It is filed as biochemical. The note with it: human PDE10A2 from transfected AD293 cell lysate, FAM-labeled cAMP 50 nM, room temperature; read-out: PDE10A Ki. The method, then:
The activity of the compounds in accordance with the present invention as PDE10 inhibitors may be readily determined without undue experimentation using a fluorescence polarization (FP) methodology that is well known in the art (Huang, W., et al., J. Biomol Screen, 2002, 7: 215).
In a typical experiment the PDE10 inhibitory activity of the compounds of the present invention was determined in accordance with the following experimental method. PDE10A2 was amplified from human fetal brain cDNA (Clontech, Mountain View, Calif.) using a forward primer corresponding to nucleotides 56-77 of human PDE10A2 (Accession No. AF127480, Genbank Identifier 4894716), containing a Kozak consensus sequence, and a reverse primer corresponding to nucleotides 2406-2413 of human PDE10A2 (Accession No. AF 127480, Genbank Identifier 4894716). Amplification with Easy-A polymerase (Stratagene, La Jolla, Calif.) was 95° C. for 2 minutes followed by thirty three cycles of 95° C. for 40 seconds, 55° C. for 30 seconds, and 72° C. for 2 minutes 48 seconds. Final extension was 72° C. for 7 minutes. The PCR product was TA cloned into pcDNA3.2-TOPO (Invitrogen, Carlsbad, Calif.) according to standard protocol. AD293 cells with 70-80% confluency were transiently transfected with human PDE10A2/pcDNA3.2-TOPO using Lipofectamine 2000 according to manufacturer specifications (Invitrogen, Carlsbad, Calif.). Cells were harvested 48 hours post-transfection and lysed by sonication (setting 3, 10×5 sec pulses) in a buffer containing 20 mM HEPES, 1 mM EDTA and protease inhibitor cocktail (Roche). Lysate was collected by centrifugation at 75,000×g for 20 minutes. Supernatant containing the cytoplasmic fraction was used for evaluation of PDE10A2 activity. The fluorescence polarization assay for cyclic nucleotide phosphodiesterases was performed using an IMAP® FP kit supplied by Molecular Devices, Sunnyvale, Calif. (product #R8139). IMAP® technology has been applied previously to phosphodiesterase assays (Huang, W., et al., J. Biomol Screen, 2002, 7: 215). Assays were performed at room temperature in 384-well microtiter plates with an incubation volume of 20.2 μL. Solutions of test compounds were prepared in DMSO and serially diluted with DMSO to yield 8 μL of each of 10 solutions differing by 3-fold in concentration, at 32 serial dilutions per plate. 100% inhibition is determined using a known PDE10 inhibitor, which can be any compound that is present at 5,000 times its Ki value in the assay described as follows, such as papaverine (see Siuciak, et al. Neuropharmacology (2006) 51:386-396; Becker, et al. Behav Brain Res (2008) 186(2):155-60; Threlfell, et al., J Pharmacol Exp Ther (2009) 328(3):785-795), 2-{4-[pyridin-4-yl-1-(2,2,2-trifluoroethyl)-1H-pyrazol-3-yl]phenoxymethyl}quinoline succinic acid or 2-[4-(1-methyl-4-pyridin-4-yl-1H-pyrazol-3-yl)-phenoxymethyl]quinoline succinic acid (see Schmidt, et al. J Pharmacol Exp Ther (2008) 325:681-690; Threlfell, et al., J Pharmacol Exp Ther (2009) 328(3): 785-795). 0% of inhibition is determined by using DMSO (1% final concentrations).
A Labcyte Echo 555 (Labcyte, Sunnyvale, Calif.) is used to dispense 200 nL from each well of the titration plate to the 384 well assay plate. A solution of enzyme ( 1/1600 dilution from aliquots; sufficient to produce 20% substrate conversion) and a separate solution of FAM-labeled cAMP PDE from Molecular Devices (product #R7506), at a final concentration of 50 nM are made in the assay buffer (10 mM Tris HCl, pH 7.2, 10 mM MgCl2, 0.05% NaN3 0.01% Tween-20, and 1 mM DTT). The enzyme and the substrate are then added to the assay plates in two consecutive additions of 10 μL, and then shaken to mix. The reaction is allowed to proceed at room temperature for 30 minutes. A binding solution is then made from the kit components, comprised of 80% Solution A, 20% Solution B and binding reagent at a volume of 1/600 the total binding solution. […]
human PDE10A2, sequence (Q9Y233 267-1055): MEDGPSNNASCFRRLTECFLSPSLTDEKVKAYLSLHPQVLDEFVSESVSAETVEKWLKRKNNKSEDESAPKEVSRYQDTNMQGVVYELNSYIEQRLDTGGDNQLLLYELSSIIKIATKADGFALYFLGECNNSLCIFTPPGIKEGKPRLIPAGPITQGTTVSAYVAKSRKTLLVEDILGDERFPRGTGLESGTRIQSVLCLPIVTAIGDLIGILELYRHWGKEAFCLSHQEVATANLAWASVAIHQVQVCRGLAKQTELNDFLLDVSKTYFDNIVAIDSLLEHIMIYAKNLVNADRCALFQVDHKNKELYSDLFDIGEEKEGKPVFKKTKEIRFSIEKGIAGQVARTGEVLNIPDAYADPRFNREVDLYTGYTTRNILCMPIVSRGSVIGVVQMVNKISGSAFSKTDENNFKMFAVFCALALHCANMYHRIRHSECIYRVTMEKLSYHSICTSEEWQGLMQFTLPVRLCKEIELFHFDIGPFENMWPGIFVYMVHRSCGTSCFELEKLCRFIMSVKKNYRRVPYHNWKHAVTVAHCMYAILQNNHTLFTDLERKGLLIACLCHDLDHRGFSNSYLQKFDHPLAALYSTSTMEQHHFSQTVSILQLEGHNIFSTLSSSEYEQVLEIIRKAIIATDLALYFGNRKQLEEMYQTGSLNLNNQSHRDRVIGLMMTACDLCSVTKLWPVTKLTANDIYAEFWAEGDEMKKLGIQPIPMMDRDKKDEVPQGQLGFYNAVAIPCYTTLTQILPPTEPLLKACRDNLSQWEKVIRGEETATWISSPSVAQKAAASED
Usually Ki stands for the dissociation constant of the complex between target and ligand, obtained from inhibition or displacement. Turning to `Cc1nc(C)c(CNc2nc(OC[C@H]3C[C@@H]3c3ccccn3)nc(Cl)c2C)s1` (stereo in doubt) [Compound 1-20, 6-chloro-N-[(2,4-dimethyl-1,3-thiazol-5-yl)methyl]-5-methyl-2-{[2-pyridin-2-ylcyclopropyl]methoxy}pyrimidin-4-amine], the inhibition constant (Ki) came out at 19 pM.

As for `Cc1c(Cl)nc(OC[C@@H]2C[C@H]2c2ccccn2)nc1NCc1cnn(C)c1` (stereo in doubt) [Compound 1-39, 6-chloro-5-methyl-N-[(1-methyl-1H-pyrazol-4-yl)methyl]-2-{[2-(pyridin-2-yl)cyclopropyl]methoxy}pyrimidin-4-amine], the inhibition constant Ki came out at 440 pM.

As to `Cn1cc(CNc2cc(C#N)nc(OC[C@H]3C[C@@H]3c3ccccn3)n2)cn1` (stereo in doubt) [Compound 1-41, 6-((1-methyl-1H-pyrazol-4-yl)methylamino)-2-((2-(pyridin-2-yl)cyclopropyl)methoxy)pyrimidin-4-carbonitrile], the Ki amounted to 35000 pM.

In the case of `CSc1nc(OC[C@H]2C[C@@H]2c2ccccn2)nc(NCc2cnn(C)c2)c1C` (stereo in doubt) [Compound 1-43, 5-methyl-N-((1-methyl-1H-pyrazol-4-yl)methyl)-6-(methylthio)-2-((2-(pyridin-2-yl)cyclopropyl)methoxy)-pyrimidin-4-amine], the inhibitory constant (Ki) stood at 170 pM.

Consider `Cc1c(NCc2cnn(C)c2)nc(OC[C@H]2C[C@@H]2c2ccccn2)nc1N(C)C` (stereo in doubt) [Compound 1-44, N4,N4,5-trimethyl-N6-((1-methyl-1H-pyrazol-4-yl)methyl)-2-((2-(pyridin-2-yl)cyclopropyl)methoxy)pyrimidine-4,6-diamine], for which the Ki came out at 53000 pM.

For the compound `Cc1nc(C)c(CNc2nc(OC[C@H]3C[C@@H]3c3ccccn3)nc(-c3ncco3)c2C)s1` (stereo in doubt) [Compound 1-46, N-((2,4-dimethylthiazol-5-yl)methyl)-5-methyl-6-(oxazol-2-yl)-2-((2-(pyridin-2-yl)cyclopropyl)methoxy)-pyrimidin-4-amine], the Ki turned out to be 6400 pM.

Take `Cc1c(Cl)nc(OCCCc2ccc3ncccc3n2)nc1NCc1cnn(C)c1` [Compound 1-21, 6-chloro-5-methyl-N-[(1-methyl-1H-pyrazol-4-yl)methyl]-2-[3-(1,5-naphthyridin-2-yl)propoxy]pyrimidin-4-amine]: the Ki is 2100 pM.

`Cc1nc(C)c(CNc2nc(OCCCc3nc4ccccc4[nH]3)nc(Cl)c2C)s1` [Compound 1-27, 2-[3-(1H-benzimidazol-2-yl)propoxy]-6-chloro-N-[(2,4-dimethyl-1,3-thiazol-5-yl)methyl]-5-methylpyrimidin-4-amine]: the Ki was determined as 23 pM.

As for `Cc1nc(C)c(CNc2nc(OCCCc3ccc4ccccc4n3)nc(Cl)c2C)s1` [Compound 1-29, 6-chloro-N-[(2,4-dimethyl-1,3-thiazol-5-yl)methyl]-5-methyl-2-(3-quinolin-2-ylpropoxy)pyrimidin-4-amine], the Ki stood at 8 pM.

On to `Cc1nc(C)c(CNc2nc(OCCOc3ccc4cccnc4n3)nc(Cl)c2C)s1` [Compound 1-32, 6-chloro-N-[(2,4-dimethyl-1,3-thiazol-5-yl)methyl]-5-methyl-2-[2-(1,8-naphthyridin-2-yloxy)ethoxy]pyrimidin-4-amine], for which the inhibitory constant (Ki) was 40 pM.

Take `Cc1nc(C)c(CNc2nc(OCCc3ccccn3)nc(C#N)c2C)s1` [Compound 1-42, 6-((2,4-dimethylthiazol-5-yl)methylamino)-5-methyl-2-(2-(pyridin-2-yl)ethoxy)pyrimidine-4-carbonitrile]: the Ki stood at 100000 pM.

In the case of `Cc1nc(C)c(CNc2nc(OC[C@H]3C[C@@H]3c3ccc4ncccc4n3)ncc2C)s1` [Compound 1-45, 2-(((1S,2S)-2-(1,5-naphthyridin-2-yl)cyclopropyl)methoxy)-N-((2,4-dimethylthiazol-5-yl)methyl)-5-methylpyrimidin-4-amine], the inhibitory constant (Ki) came to 58 pM.

Take `Cc1c(Cl)nc(OC[C@H]2C[C@@H]2c2ccc3ncccc3n2)nc1NCc1nc(C)n(C)n1` [Compound 1-47, 2-(((1S,2S)-2-(1,5-naphthyridin-2-yl)cyclopropyl)methoxy)-6-chloro-N-((1,5-dimethyl-1H-1,2,4-triazol-3-yl)methyl)-5-methylpyrimidin-4-amine]: the Ki came to 8100 pM.

Take `Cc1nc(C)c(CNc2nc(OC[C@H]3C[C@@H]3c3ccc4ncccc4n3)nc(Cl)c2C)o1` [Compound 1-48, 2-(((1S,2S)-2-(1,5-naphthyridin-2-yl)cyclopropyl)methoxy)-6-chloro-N-((2,4-dimethyloxazol-5-yl)methyl)-5-methylpyrimidin-4-amine]: the Ki was 490 pM.

`Cc1nc(CNc2nc(OC[C@H]3C[C@@H]3c3ccc4ncccc4n3)nc(Cl)c2C)n(C)n1` [Compound 1-49, 2-(((1S,2S)-2-(1,5-naphthyridin-2-yl)cyclopropyl)methoxy)-6-chloro-N-((1,3-dimethyl-1H-1,2,4-triazol-5-yl)methyl)-5-methylpyrimidin-4-amine]: the inhibition constant Ki was found to be 2200 pM.

As to `COc1ccc([C@H]2C[C@@H]2COc2nc(Cl)c(C)c(NCc3cnn(C)n3)n2)nc1` [Compound 1-50], the Ki is 770 pM.

Turning to `Cc1cc(CNc2nc(OC[C@H]3C[C@@H]3c3ccc4ncccc4n3)nc(Cl)c2C)n(C)n1` [Compound 1-51, 2-(((1S,2S)-2-(1,5-naphthyridin-2-yl)cyclopropyl)methoxy)-6-chloro-N-((1,3-dimethyl-1H-pyrazol-5-yl)methyl)-5-methylpyrimidin-4-amine], the inhibitory constant (Ki) was 3.2 pM.

(Values after US8785467B2, “Alkoxy pyrimidine PDE10 inhibitors” (Merck Sharp & Dohme Corp., priority 2010, dated 2014).)
